Legend:
TNF-alpha (Homo sapiens) [1] = assay: Compound was tested for the inhibition of LPS-induced TNF-alpha production in human peripheral blood mononuclear cells (PBMC) at 30 uM
TNF-alpha (Homo sapiens) [2] = assay: Compound was tested for the inhibition of LPS-induced TNF-alpha production in human peripheral blood mononuclear cells (PBMC)

IC50 (TNF-alpha (Homo sapiens) [2]) [µM]	Compound	inhibition at 30 µM (TNF-alpha (Homo sapiens) [1]) [%]
> 30	O=C1NC(=S)c2ccccc21	34
> 30	O=C(O)CCC(C(=O)O)N1C(=O)c2ccccc2C1=S (stereo not drawn)	20
6	O=C1c2ccccc2C(=S)N1C1CCC(=S)NC1=S (stereo not drawn)	79
> 30	O=C1CCC(N2C(=O)c3ccccc3C2=S)C(=O)N1 (stereo not drawn)	23
8	S=C1CCCC(=S)N1	75
11	O=C1NC(=S)CCC1N1C(=O)c2ccccc2C1=S (stereo not drawn)	61
20	COC(=O)CCC(C(=O)OC)N1C(=O)c2ccccc2C1=S (stereo not drawn)	56
16	O=C1c2ccccc2C(=S)N1C1C=CCCC1 (stereo not drawn)	85
> 30	O=C1NC(=S)CCC1N1C(=O)c2ccccc2C1=O (stereo not drawn)	31
> 30	O=C1CCCC(=S)N1	15
3	S=C1NC(=S)c2ccccc21	95
20	O=C1c2ccccc2C(=O)N1C1CCC(=S)NC1=S (stereo not drawn)	52
15	S=C1c2ccccc2C(=S)N1C1C=CCCC1 (stereo not drawn)	86
10	COC(=O)CCC(C(=O)OC)N1C(=S)c2ccccc2C1=S (stereo not drawn)	85
